Results reported in US9617225B2 (VIROSTATICS SRL, priority 2012, dated 2017).
Where a name gives a salt, the structure may show the parent alone. Read-outs that look alike come from different tables or passages of the source.

Key:
[1] = target: human CDK9/CyclinT kinase complex (Homo sapiens (Human), UniProt P50750); assay: In Vitro CDK9/CyclinT Assay (IMAP fluorescent polarization); format: biochemical
Protocol: In Vitro CDK9/CyclinT Assay
The activity of the compounds described in the present invention can be determined by measuring the phosphorylation of a fluorescently-labeled peptide by human CDK9/CyclinT kinase complex by fluorescent polarization using a commercially available IMAP Screening Express Assay Kit (Molecular devices).
Test compounds were diluted in 100% DMSO to 5 mM stock concentration, then further dilutions were made in H2O or 100% DMSO to desirable concentrations. Each reaction consisted of 5 nM enzyme: CDK9/CyclinT (Proqinase cat#0371-0345-1), 400 nM TAMRA-Rbtide (synthetic 15-mer peptide derived from human retinoblastoma tumor suppressor protein labeled with TAMRA dye, Genecust Europe), 12 μM ATP (=Kmapp, Sigma-Aldrich) and kinase buffer: 20 mM MOPS pH 7 (Sigma-Aldrich), 1 mM DTT (Sigma-Aldrich), 10 mM MgCl2 (Sigma-Aldrich), 0.01% Tween 20 (Sigma-Aldrich).
For each reaction, 4 or 6 μl containing TAMRA-Rbtide, ATP and kianse buffer were combined with 2 μl diluted compound in H2O or 0.028 μl compound in 100% DMSO. The kinase reaction was started by the addition of 2 μl diluted enzyme. The reaction was allowed to run for 1 hour at room temperature. The reaction was stopped by adding 15 μl IMAP beads (1:400 beads in progressive (100% buffer A) 1× buffer).

Primary T cells = assay: Cytotoxicity, viability by flow cytometry; format: cell-based
Protocol: Primary T cells are cultured and treated with different concentrations of the test compound. Viability is analysed by measuring through flow cytometry based techniques the percentage of viable cells, compared to untreated control=100%).

[2] = Table 4, toxic dose 50%, viable cells

Sequence of human CDK9/CyclinT kinase complex (P50750 whole entry): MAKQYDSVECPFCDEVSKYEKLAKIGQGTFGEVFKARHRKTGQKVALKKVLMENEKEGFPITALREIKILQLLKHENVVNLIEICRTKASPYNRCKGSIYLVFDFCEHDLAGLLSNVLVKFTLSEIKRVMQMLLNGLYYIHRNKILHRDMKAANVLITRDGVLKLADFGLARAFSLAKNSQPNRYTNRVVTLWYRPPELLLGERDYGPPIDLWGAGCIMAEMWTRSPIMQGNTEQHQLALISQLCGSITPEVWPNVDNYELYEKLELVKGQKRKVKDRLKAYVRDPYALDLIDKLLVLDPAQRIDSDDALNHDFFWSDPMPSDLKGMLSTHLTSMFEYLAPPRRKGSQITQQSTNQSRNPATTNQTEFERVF
Sequence of human CDK9/CyclinT kinase complex (O60563 whole entry partner): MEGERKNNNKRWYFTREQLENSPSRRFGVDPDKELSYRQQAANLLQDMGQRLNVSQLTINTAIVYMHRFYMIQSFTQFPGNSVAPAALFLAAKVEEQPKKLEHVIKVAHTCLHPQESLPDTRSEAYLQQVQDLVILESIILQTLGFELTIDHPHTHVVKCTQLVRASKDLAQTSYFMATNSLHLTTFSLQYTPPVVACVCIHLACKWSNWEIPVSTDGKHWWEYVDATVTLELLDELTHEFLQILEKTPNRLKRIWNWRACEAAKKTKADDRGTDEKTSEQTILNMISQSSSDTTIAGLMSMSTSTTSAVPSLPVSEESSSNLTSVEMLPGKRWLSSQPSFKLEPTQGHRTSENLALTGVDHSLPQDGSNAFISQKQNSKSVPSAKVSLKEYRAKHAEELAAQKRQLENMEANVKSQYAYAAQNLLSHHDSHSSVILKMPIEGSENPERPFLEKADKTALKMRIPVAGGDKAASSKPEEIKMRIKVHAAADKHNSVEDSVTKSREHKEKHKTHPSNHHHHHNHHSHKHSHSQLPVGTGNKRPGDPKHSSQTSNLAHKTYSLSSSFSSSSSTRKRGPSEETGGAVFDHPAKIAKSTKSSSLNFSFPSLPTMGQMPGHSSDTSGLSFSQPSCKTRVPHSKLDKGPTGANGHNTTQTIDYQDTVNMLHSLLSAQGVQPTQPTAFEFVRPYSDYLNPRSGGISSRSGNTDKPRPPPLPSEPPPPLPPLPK

SMILES | IC50 [1] | TD50 (Primary T cells) | IC50 ([1]; Table 1) | TD50 (Primary T cells; [2])
COc1ccc(Nc2cc(-c3ccccc3OC)ncn2)cc1CNCc1ccccc1 [Example 1, N-(3-((Benzylamino)methyl)-4-methoxyphenyl)-6-(2-methoxyphenyl)pyrimidin-4-amine] | < 1000 nM | 3.5 µM | – | –
COc1ccccc1-c1cc(Nc2ccc(N3CCN(C)CC3)c(Cn3cnc4ccccc43)c2)ncn1 [Example 2, N-(3-((1H-Benzo[d]imidazol-1-yl)methyl)-4-(4-methylpiperazin-1-yl)phenyl)-6-(2-methoxyphenyl)pyrimidin-4-amine] | – | 0.4 µM | < 100 nM | –
COc1ccc(Nc2cc(-c3ccccc3OC)ncn2)cc1CNS(C)(=O)=O [Example 4, N-(2-Methoxy-5-(6-(2-methoxyphenyl)pyrimidin-4-ylamino)benzyl)methanesulfonamide] | – | 2.1 µM | < 100 nM | –
COc1ccccc1-c1cc(Nc2ccc(Cl)c(CO)c2)ncn1 [Example 6, (2-Chloro-5-(6-(2-methoxyphenyl)pyrimidin-4-ylamino)phenyl)methanol] | – | >0.5 µM | < 1000 nM | –
COc1ccccc1-c1cc(Nc2ccc(Cl)c(C(=O)NN)c2)ncn1 [Example 7, 2-Chloro-5-(6-(2-methoxyphenyl)pyrimidin-4-ylamino)benzohydrazide] | – | >5 µM | < 100 nM | –
COc1ccc(Nc2cc(-c3ccccc3OC)ncn2)cc1OCCN1CCOCC1 [Example 8, N-(4-Methoxy-3-(2-morpholinoethoxy)phenyl)-6-(2-methoxyphenyl)pyrimidin-4-amine] | – | – | < 1000 nM | >1.5 µM
COc1ccc(Nc2cc(-c3ccccc3OC)ncn2)cc1NS(C)(=O)=O [Example 9, N-(2-Methoxy-5-(6-(2-methoxyphenyl)pyrimidin-4-ylamino)phenyl)methanesulfonamide] | – | >1.5 µM | – | –
CCOC(=O)c1cc(Nc2cc(-c3ccccc3OC)ncn2)ccc1Cl [Example 14, Ethyl 2-chloro-5-(6-(2-methoxyphenyl)pyrimidin-4-ylamino)benzoate] | < 1000 nM | >0.5 µM | – | –
COc1ccccc1-c1cc(Nc2ccc(Cl)c(C(=O)N3CCCC3)c2)ncn1 [Example 15, (2-Chloro-5-(6-(2-methoxyphenyl)pyrimidin-4-ylamino)phenyl)(pyrrolidin-1-yl)methanone] | < 1000 nM | >0.5 µM | – | –
COc1ccccc1-c1cc(Nc2ccc(N3CCN(C)CC3)c(CO)c2)ncn1 [Example 17] | – | >0.5 µM | – | –
CCOC(=O)c1cc(Nc2cc(-c3ccccc3OC)ncn2)ccc1N1CCOCC1 [Example 18, Ethyl 5-(6-(2-methoxyphenyl)pyrimidin-4-ylamino)-2-morpholinobenzoate] | – | >0.5 µM | < 1000 nM | –
COc1ccccc1-c1cc(Nc2ccc(N3CCOCC3)c(CO)c2)ncn1 [Example 19, (5-(6-(2-Methoxyphenyl)pyrimidin-4-ylamino)-2-morpholinophenyl)methanol] | – | >0.5 µM | < 1000 nM | –
COc1ccccc1-c1cc(Nc2ccc(Cl)c(CN3C(=O)c4ccccc4C3=O)c2)ncn1 [Example 20, 2-(2-Chloro-5-(6-(2-methoxyphenyl)pyrimidin-4-ylamino)benzyl)isoindoline-1,3-dione] | < 10000 nM | – | – | >0.5 µM
COC(=O)c1cc(Nc2cc(-c3ccccc3OC)ncn2)ccc1O [Example 21, Methyl 2-hydroxy-5-(6-(2-methoxyphenyl)pyrimidin-4-ylamino)benzoate] | – | >0.5 µM | < 1000 nM | –
COc1ccc(Nc2cc(-c3ccccc3OC)ncn2)cc1F [Example 22, N-(3-Fluoro-4-methoxyphenyl)-6-(2-methoxyphenyl)pyrimidin-4-amine] | – | >0.5 µM | < 1000 nM | –
COc1ccc(Nc2cc(-c3ccccc3OC)ncn2)cc1C(=O)NCc1ccccc1 [Example 23, N-Benzyl-2-methoxy-5-(6-(2-methoxyphenyl)pyrimidin-4-ylamino)benzamide] | – | >0.5 µM | < 1000 nM | –
COc1ccc(Nc2cc(-c3ccccc3OC)ncn2)cc1CO [Example 24, (2-Methoxy-5-(6-(2-methoxyphenyl)pyrimidin-4-ylamino)phenyl)methanol] | – | >0.5 µM | < 1000 nM | –
CNC(=O)c1cc(Nc2cc(-c3ccccc3OC)ncn2)ccc1OC [Example 25, 2-Methoxy-5-(6-(2-methoxyphenyl)pyrimidin-4-ylamino)-N-methylbenzamide] | – | >0.5 µM | < 1000 nM | –
COc1ccc(Nc2cc(-c3ccccc3OC)ncn2)cc1NC(=O)OCC(Cl)(Cl)Cl [Example 27, 2,2,2-Trichloroethyl 2-methoxy-5-(6-(2-methoxyphenyl)pyrimidin-4-ylamino)phenylcarbamate] | < 10000 nM | – | – | >0.5 µM

SMILES | IC50 [1] | TD50 (Primary T cells) | IC50 ([1]; Table 1) | TD50 (Primary T cells; [2])
COc1ccc(Nc2cc(-c3ccccc3OC)ncn2)cc1CN(C)C [Example 35, N-(3-((Dimethylamino)methyl)-4-methoxyphenyl)-6-(2-methoxyphenyl)pyrimidin-4-amine] | – | 3 µM | – | –
COC(=O)N(C)c1cc(Nc2cc(-c3ccccc3OC)ncn2)ccc1OC [Example 98, {2-Methoxy-5-[6-(2-methoxy-phenyl)-pyrimidin-4-ylamino]-phenyl}-methyl-carbamic acid methyl ester hydrochloride] | < 1000 nM | – | – | –
CNc1cc(Nc2cc(-c3ccccc3OC)ncn2)ccc1OC [Example 99, 4-Methoxy-N^1-[6-(2-methoxy-phenyl)-pyrimidin-4-yl]-N^3-methyl-benzene-1,3-diamine] | – | – | < 1000 nM | –
CCOc1ccc(Nc2cc(-c3ccccc3OC)ncn2)cc1[N+](=O)[O-] [Example 100, (4-Ethoxy-3-nitro-phenyl)-[6-(2-methoxy-phenyl)-pyrimidin-4-yl]-amine] | – | – | < 10000 nM | –
COc1cc(F)ccc1-c1cc(Nc2ccc(F)c([N+](=O)[O-])c2)ncn1 [Example 102, [6-(4-Fluoro-2-methoxy-phenyl)-pyrimidin-4-yl]-(4-fluoro-3-nitro-phenyl)-amine] | < 10000 nM | – | – | –
CCOc1ccc(Nc2cc(-c3ccc(F)cc3OC)ncn2)cc1[N+](=O)[O-] [Example 103, (4-Ethoxy-3-nitro-phenyl)-[6-(4-fluoro-2-methoxy-phenyl)-pyrimidin-4-yl]-amine] | – | – | < 1000 nM | –
COc1cc(F)ccc1-c1cc(Nc2ccc(F)c(N)c2)ncn1 [Example 104, 4-Fluoro-N^1-[6-(4-fluoro-2-methoxy-phenyl)-pyrimidin-4-yl]-benzene-1,3-diamine] | – | – | < 1000 nM | –
COc1ccccc1-c1cc(Nc2ccc(N(C)C)c(O)c2)ncn1 [Example 108, 2-Dimethylamino-5-[6-(2-methoxy-phenyl)-pyrimidin-4-ylamino]-phenol] | < 1000 nM | – | – | –
COc1ccccc1-c1cc(Nc2ccc(N(C)C)c(C(N)=O)c2)ncn1 [Example 109, 2-Dimethylamino-5-[6-(2-methoxy-phenyl)-pyrimidin-4-ylamino]-benzamide] | < 1000 nM | – | – | –
CCOc1ccc(Nc2cc(-c3ccccc3OC)ncn2)cc1O [Example 110, 2-Ethoxy-5-[6-(2-methoxy-phenyl)-pyrimidin-4-ylamino]-phenol] | – | – | < 1000 nM | –
COc1cc(F)ccc1-c1cc(Nc2ccc(N(C)C)c(C(N)=O)c2)ncn1 [Example 113, 2-Dimethylamino-5-[6-(4-fluoro-2-methoxy-phenyl)-pyrimidin-4-ylamino]-benzamide] | – | – | < 100 nM | –
COc1ccc(Nc2cc(-c3ccccc3OC)ncn2)cc1Br [Example 115, (3-Bromo-4-methoxy-phenyl)-[6-(2-methoxy-phenyl)-pyrimidin-4-yl]-amine] | < 10000 nM | – | – | –
COc1ccc(Nc2cc(-c3ccccc3OC)ncn2)cc1C1=CCNCC1 [Example 116, [6-(2-Methoxy-phenyl)-pyrimidin-4-yl]-[4-methoxy-3-(1,2,3,6-tetrahydro-pyridin-4-yl)-phenyl]-amine] | – | – | < 100 nM | –
COc1ccc(Nc2cc(-c3ccc(F)cc3OC)ncn2)cc1NC(N)=O [Example 119, {5-[6-(4-Fluoro-2-methoxy-phenyl)-pyrimidin-4-ylamino]-2-methoxy-phenyl}-urea] | – | – | < 1000 nM | –
COc1cc(Nc2cc(-c3ccccc3OC)ncn2)ccc1OCc1ccccc1 [Example 120, (4-Benzyloxy-3-methoxy-phenyl)-[6-(2-methoxy-phenyl)-pyrimidin-4-yl]-amine] | < 10000 nM | – | – | –
COc1cc(Nc2cc(-c3ccccc3OC)ncn2)ccc1O [Example 121, 2-Methoxy-4-[6-(2-methoxy-phenyl)-pyrimidin-4-ylamino]-phenol] | – | – | < 100 nM | –
CCOc1ccccc1-c1cc(Nc2ccc(OC)c(O)c2)ncn1 [Example 124, 5-[6-(2-Ethoxy-phenyl)-pyrimidin-4-ylamino]-2-methoxy-phenol] | – | – | < 1000 nM | –
COC(=O)Oc1cc(Nc2cc(-c3ccc(F)cc3OC)ncn2)ccc1OC [Example 125, Carbonic acid 5-[6-(4-fluoro-2-methoxy-phenyl)-pyrimidin-4-ylamino]-2-methoxy-phenyl ester methyl ester] | – | – | < 1000 nM | –
COc1cc(Nc2cc(-c3ccccc3OC)ncn2)ccc1C(=O)NCCO [Example 135, N-(2-Hydroxy-ethyl)-2-methoxy-4-[6-(2-methoxy-phenyl)-pyrimidin-4-ylamino]-benzamide] | – | – | < 1000 nM | –
